# Data: patent US20260256792A1, “TREATMENT OF CHRONIC SPONTANEOUS URTICARIA BY ADMINISTERING (R)-2-[3-[4-AMINO-3-(2-FLUORO-4-PHENOXY-PHENYL)PYRAZOLO[3,4-D]PYRIMIDIN-1-YL]PIPERIDINE-1-CARBONYL]-4-METHYL-4-[4-(OXETAN-3-YL)PIPERAZIN-1-YL]PENT-2-ENENITRILE” (priority 2023, published 2026)
# Test system: moderate-to-severe chronic spontaneous urticaria (CSU)
# Assay: Phase 2 CSU study: hives severity score over 7 days (HSS7)
# Format: in vivo, human
# Design: key to HSS7 Change from baseline, Median / HSS7, Median / HSS7, Max / HSS7 Change from baseline, Q1 / HSS7 Change from baseline, Q3 / HSS7 Change from baseline, Max: 7-day sum of daily hive scores, each 0 = none to 3 = >50 hives
# Text: The study comprises a 12 week, randomized, double-blind, placebo-controlled, multi-center, dose-ranging efficacy and safety phase, followed by a 40 week open label extension (OLE) phase (see FIG. 1).
# The study consists of three phases and an optional OLE phase.
# The UAS is a validated PRO measure. The daily UAS is the sum of the daily Hive Severity Score (HSS, ranging from 0=None to 3=more than 50 hives) and the daily Itch Severity Score (ISS, ranging from 0=None to 3=intense), the 2 key urticaria signs and symptoms which are wheals and itch. The daily UAS scores range from 0 to 6 point/day. Daily UAS scores are summed over 7-day period to create the UAS7, ranging from 0 to 42, and are composed of the HSS7 and ISS7 components. […] Patients were to complete the UAS using the e-diary. The e-diary was to be used once daily on the same time of each day recording of participant's answers to the urticaria activity score over 7 days (UAS7) questionnaire. For participants who entered the OLE phase, their answers to the UAS7 questionnaire were also to be collected from Week 20 to Week24 and from Week 48 to Week 52.
# The following secondary endpoints were to be analyzed using the same approach as for the primary endpoint: • Change from baseline in UAS7 at Week 4 • Change from baseline in UAS7 at Week 12 (for US and US reference countries) • Change from baseline in ISS7 at Week 12 (except US and US reference countries) • Change from baseline in HSS7 at Week 12
# [1] = Week 7, 400 mg BID, Omalizumab-Naïve Population
# [2] = Week 7, 400 mg BID, Patients with Prior Omalizumab Use
# [3] = Week 7, 400 mg QPM, Omalizumab-Naïve Population
# [4] = Week 7, 400 mg QPM, Patients with Prior Omalizumab Use
# [5] = Week 7, 400 mg TID, Omalizumab-Naïve Population
# [6] = Week 7, 400 mg TID, Patients with Prior Omalizumab Use
# [7] = Week 8, 400 mg BID, Omalizumab-Naïve Population
# [8] = Week 8, 400 mg BID, Patients with Prior Omalizumab Use
# [9] = Week 8, 400 mg QPM, Omalizumab-Naïve Population
# [10] = Week 8, 400 mg QPM, Patients with Prior Omalizumab Use
# [11] = Week 8, 400 mg TID, Omalizumab-Naïve Population
# [12] = Week 8, 400 mg TID, Patients with Prior Omalizumab Use
# [13] = Week 9, 400 mg BID, Omalizumab-Naïve Population
# [14] = Week 9, 400 mg BID, Patients with Prior Omalizumab Use
# [15] = Week 9, 400 mg QPM, Omalizumab-Naïve Population
# [16] = Week 9, 400 mg QPM, Patients with Prior Omalizumab Use
# [17] = Week 9, 400 mg TID, Omalizumab-Naïve Population
# [18] = Week 9, 400 mg TID, Patients with Prior Omalizumab Use
smiles,measurement,setting,value
"CC(C)(C=C(C#N)C(=O)N1CCC[C@@H](n2nc(-c3ccc(Oc4ccccc4)cc3F)c3c(N)ncnc32)C1)N1CCN(C2COC2)CC1 [rilzabrutinib, (R)-2-[3-[4-amino-3-(2-fluoro-4-phenoxy-phenyl)pyrazolo[3,4-d]pyrimidin-1-yl]piperidine-1-carbonyl]-4-methyl-4-[4-(oxetan-3-yl)piperazin-1-yl]pent-2-enenitrile]","HSS7, Mean (SD)",[1],7.34 (6.12)
same,"HSS7, Median",[1],7.00
same,"HSS7 Change from baseline, Mean (SD)",[1],−6.75 (5.85)
same,"HSS7 Change from baseline, Median",[1],−7.00
same,"HSS7 Percent change from baseline, Mean (SD)",[1],−48.07 (38.31) %
same,"HSS7 Percent change from baseline, Median",[1],−50.00%
same,"HSS7, Mean (SD)",[2],4.80 (7.46)
same,"HSS7, Median",[2],0.00
same,"HSS7 Change from baseline, Mean (SD)",[2],−10.00 (9.67)
same,"HSS7 Change from baseline, Median",[2],−12.00
same,"HSS7 Percent change from baseline, Median",[2],−100.00%
same,"HSS7, Mean (SD)",[3],10.43 (5.27)
same,"HSS7, Median",[3],8.40
same,"HSS7 Change from baseline, Mean (SD)",[3],−4.82 (5.35)
same,"HSS7 Change from baseline, Median",[3],−4.00
same,"HSS7 Percent change from baseline, Mean (SD)",[3],−29.76 (31.10) %
same,"HSS7 Percent change from baseline, Median",[3],−35.71%
same,"HSS7, Mean (SD)",[4],9.00 (NC)
same,"HSS7, Median",[4],9.00
same,"HSS7 Change from baseline, Mean (SD)",[4],−11.00 (NC)
same,"HSS7 Change from baseline, Median",[4],−11.00
same,"HSS7 Percent change from baseline, Mean (SD)",[4],−55.00 (NC) %
same,"HSS7 Percent change from baseline, Median",[4],−55.00%
same,"HSS7, Mean (SD)",[5],6.40 (4.54)
same,"HSS7, Median",[5],5.92
same,"HSS7 Change from baseline, Mean (SD)",[5],−7.60 (5.60)
same,"HSS7 Change from baseline, Median",[5],−6.58
same,"HSS7 Percent change from baseline, Mean (SD)",[5],−52.36 (32.23) %
same,"HSS7 Percent change from baseline, Median",[5],−50.69%
same,"HSS7, Mean (SD)",[6],5.11 (4.08)
same,"HSS7, Median",[6],4.33
same,"HSS7 Change from baseline, Mean (SD)",[6],−10.92 (7.20)
same,"HSS7 Change from baseline, Median",[6],−9.50
same,"HSS7 Percent change from baseline, Mean (SD)",[6],−63.38 (24.01) %
same,"HSS7 Percent change from baseline, Median",[6],−54.41%
same,"HSS7, Mean (SD)",[7],6.66 (6.70)
same,"HSS7, Median",[7],5.00
same,"HSS7 Change from baseline, Mean (SD)",[7],−7.49 (6.10)
same,"HSS7 Change from baseline, Median",[7],−7.00
same,"HSS7 Percent change from baseline, Mean (SD)",[7],−54.71 (40.69) %
same,"HSS7 Percent change from baseline, Median",[7],−74.07%
same,"HSS7, Mean (SD)",[8],4.80 (7.46)
same,"HSS7, Median",[8],0.00
same,"HSS7 Change from baseline, Mean (SD)",[8],−10.00 (9.67)
same,"HSS7 Change from baseline, Median",[8],−12.00
same,"HSS7 Percent change from baseline, Median",[8],−100.00%
same,"HSS7, Median",[9],9.00
same,"HSS7 Change from baseline, Mean (SD)",[9],−4.56 (5.35)
same,"HSS7 Change from baseline, Median",[9],−4.00
same,"HSS7 Percent change from baseline, Mean (SD)",[9],−29.79 (35.34) %
same,"HSS7 Percent change from baseline, Median",[9],−28.57%
same,"HSS7, Mean (SD)",[10],9.00 (NC)
same,"HSS7, Median",[10],9.00
same,"HSS7 Change from baseline, Mean (SD)",[10],−11.00 (NC)
same,"HSS7 Change from baseline, Median",[10],−11.00
same,"HSS7 Percent change from baseline, Mean (SD)",[10],−55.00 (NC) %
same,"HSS7 Percent change from baseline, Median",[10],−55.00%
same,"HSS7, Mean (SD)",[11],6.12 (4.80)
same,"HSS7, Median",[11],6.00
same,"HSS7 Change from baseline, Mean (SD)",[11],−7.88 (5.18)
same,"HSS7 Change from baseline, Median",[11],−7.50
same,"HSS7 Percent change from baseline, Mean (SD)",[11],−56.04 (32.39) %
same,"HSS7 Percent change from baseline, Median",[11],−56.35%
same,"HSS7, Mean (SD)",[12],3.17 (4.45)
same,"HSS7, Median",[12],1.50
same,"HSS7 Change from baseline, Mean (SD)",[12],−12.86 (6.28)
same,"HSS7 Percent change from baseline, Mean (SD)",[12],−80.91 (20.45) %
same,"HSS7 Percent change from baseline, Median",[12],−86.73%
same,"HSS7, Mean (SD)",[13],7.01 (7.58)
same,"HSS7, Median",[13],3.50
same,"HSS7 Change from baseline, Mean (SD)",[13],−6.95 (6.00)
same,"HSS7 Change from baseline, Median",[13],7.00
same,"HSS7 Percent change from baseline, Mean (SD)",[13],−53.79 (43.28) %
same,"HSS7 Percent change from baseline, Median",[13],−68.18%
same,"HSS7, Mean (SD)",[14],4.80 (7.46)
same,"HSS7, Median",[14],0.00
same,"HSS7 Change from baseline, Mean (SD)",[14],−10.00 (9.67)
same,"HSS7 Change from baseline, Median",[14],−12.00
same,"HSS7 Percent change from baseline, Median",[14],−100.00%
same,"HSS7, Mean (SD)",[15],9.82 (5.59)
same,"HSS7, Median",[15],9.20
same,"HSS7 Change from baseline, Mean (SD)",[15],−5.33 (5.35)
same,"HSS7 Change from baseline, Median",[15],4.92
same,"HSS7 Percent change from baseline, Mean (SD)",[15],−34.46 (32.68) %
same,"HSS7 Percent change from baseline, Median",[15],−33.59%
same,"HSS7, Mean (SD)",[16],8.00 (NC)
same,"HSS7, Median",[16],8.00
same,"HSS7 Change from baseline, Mean (SD)",[16],−12.00 (NC)
same,"HSS7 Change from baseline, Median",[16],−12.00
same,"HSS7 Percent change from baseline, Mean (SD)",[16],−60.00 (NC) %
same,"HSS7 Percent change from baseline, Median",[16],−60.00%
same,"HSS7, Mean (SD)",[17],5.88 (4.98)
same,"HSS7, Median",[17],6.00
same,"HSS7 Change from baseline, Mean (SD)",[17],−8.19 (5.87)
same,"HSS7 Change from baseline, Median",[17],−8.00
same,"HSS7 Percent change from baseline, Mean (SD)",[17],−55.85 (38.63) %
same,"HSS7 Percent change from baseline, Median",[17],−57.14%
same,"HSS7, Mean (SD)",[18],3.25 (4.37)
same,"HSS7, Median",[18],2.00
same,"HSS7 Change from baseline, Mean (SD)",[18],−12.78 (6.34)
same,"HSS7 Change from baseline, Median",[18],−12.00
same,"HSS7 Percent change from baseline, Mean (SD)",[18],−80.12 (19.92) %
same,"HSS7 Percent change from baseline, Median",[18],−86.97%
same,"HSS7, Mean (SD)","Week 10, 400 mg BID, Omalizumab-Naïve Population",7.05 (7.27)
